What was measured:
platelet = conditions: risk of causing thrombocytopenia; cited from earlier work
Vero cells [1] = assay: Proliferation (growth rate, fold change in cell number) of cells after senescence induction; assay type: cell-based, African monkey; conditions: senescence induced by the agent; 48 hours of incubation; control cells approximately eight-fold change; FIG. 1B
Method: (§1) Vero cells were treated with the stressors including 200 μM H2O2, 4 mM of sodium butyrate (SB) or 25 μM of bleomycin sulphate (BS) and incubated for 36-48 hours. After washing with PBS and then replacing growth medium with fresh medium, cells were incubated for four days to confirm the growth arrest of senescent cells. […] Four criteria were used to determine if cells were senescent; (1) cell cycle arrest by determining the growth rate, (2) Increase in cell spread area, (3) development of senescence associated secretory phonotype (SASP) in culture medium, and (4) beta-gal staining. Images of cells were captured with an Evos microscope at 10× magnification after treatment and 48 hours post treatment.
To measure growth by the increase in cell number, 15 random images were captured, then the average number of cells were determined, which was divided by the area of one frame to get the cell density (cells/cm^2). Then this seeding density was multiplied by the total area of the dish or well to obtain the total number of cells after ultrasound (US) treatment and after 48 hours of incubation. The total number of cells at 48 hours was divided by the total number of cells just after the treatment to determine the growth rate. A ratio was one would be an indication of no growth.

Vero cells [2] = assay: Cell spread area after senescence induction; assay type: cell-based, African monkey; conditions: senescence induced by the agent, compared to normal control cells; FIG. 1C
Method: as §1
Senescence was detected by the beta-galactosidase senescence staining kit as per manufacturer's protocol. Briefly, sub confluent senescent cells were stained by the SA-beta galactosidase (β-gal) staining solution and incubated overnight at 37° C. The β-gal-stained cells appeared blue and were senescent cells. The percentages of β-gal positive cells were determined by counting the number of blue cells and dividing by the total number of cells. Cell spread area was determined by capturing the mages of cells with a 10× objective using an Evos microscope. Then, ImageJ software was used to calculate spread area by manually encircling the cell periphery of each cell. A minimum of 150 cells was used for the analysis. To determine the SASP activity, the senescent cells were cultured for one to three days and then supernatant was collected from each dish. This supernatant was used to culture normal cells. Development of a senescence phenotype by the normal cells in supernatant medium confirmed that senescent cells were secreting SASP.

Sirtuin1 = assay: LFU rejuvenation of senescent cells in presence of Sirtuin1 inhibitor; assay type: cell-based, Human; conditions: HFF cells with ultrasound treatment in presence of drug; FIG. 7
Method: Passage 15-24 HFF cells were treated with ultrasound at the optimized frequency, power and duty cycle. Cell proliferation was determined by counting the number of cells at the time of seeding and 48 hours after ultrasound (US) treatment. […] In the case of P24 HFF cells, they were treated with ultrasound and incubated for 96 hours prior to trypsinization, reseeding and incubation for 48 hours. Proliferation and morphology were measured after 48 hours of incubation.
FIG. 7A is a schematic of resveratrol and EX-527 treatment, followed by ultrasound treatment and medium change. FIG. 7B is a bar graph comparing the fold change in cell number of untreated control HFF cells in presence of EX-527.
FIG. 7C is a bar graph comparing the fold change in cell number of treated P19 cells in the presence of drug. FIG. 7D is a set of images comparing the immunofluorescence staining of Sirt1 in untreated and US treated HFF cells. FIG. 7E is bar graph comparing the sirt1 expression by intensity ratio of sirt1 and DAPI. Results are shown as mean±S.D. **p value <0.02 and ‘non-significant’ p value >0.05.

Row | Molecule | toxicity (platelet) | proliferation (fold change) (Vero cells [1]) | spread area (Vero cells [2]) | LFU rejuvenation of senescent cells (Sirtuin1)
1 | CC1(C)CCC(c2ccc(Cl)cc2)=C(CN2CCN(c3ccc(C(=O)NS(=O)(=O)c4ccc(N[C@H](CCN5CCOCC5)CSc5ccccc5)c(S(=O)(=O)C(F)(F)F)c4)cc3)CC2)C1 [ABT263] | dose-limiting platelet toxicity |  |  | 
2 | COc1cccc2c1C(=O)c1c(O)c3c(c(O)c1C2=O)C[C@@](O)(C(=O)CO)C[C@@H]3O[C@H]1C[C@H](N)[C@H](O)[C@H](C)O1 [Doxorubicin] |  | non proliferative | enlarged | 
3 | NC(=O)C1CCCc2c1[nH]c1ccc(Cl)cc21 (stereo not shown) [EX-527] |  |  |  | blocked
4 | OO [H2O2, hydrogen peroxide] |  | non proliferative | enlarged | 
5 | CCCC(=O)[O-].[Na+] [sodium butyrate] |  | non proliferative | enlarged | 
6 | Bleomycin Sulphate |  | non proliferative | enlarged | 
